Data published in ChEMBL document CHEMBL3232991, “New polyfunctional imidazo[4,5-C]pyridine motifs: synthesis, crystal studies, docking studies and antimicrobial evaluation” (Eur J Med Chem, 2014).
Converted amounts (≈) assume the structure as drawn. The source made the active and inactive calls. The rule behind the calls is not given here.

Tests used:
Pseudomonas aeruginosa [1] = test: Antibacterial activity against Pseudomonas aeruginosa MTCC 4727 assessed as diameter of growth inhibition zone at 1000 ug/ml after 20 hrs by agar disc diffusion method; type: functional
Candida albicans [2] = test: Antifungal activity against Candida albicans MTCC 183 assessed as diameter of growth inhibition zone at 500 ug/ml after 4 days by agar disc diffusion method; type: functional
Escherichia coli [3] = test: Antibacterial activity against Escherichia coli NCIM 2931 assessed as diameter of growth inhibition zone at 1000 ug/ml after 20 hrs by agar disc diffusion method; type: functional; settings: NCIM 2931, 20 h, read-out: DIZ
Pseudomonas aeruginosa [4] = test: Antibacterial activity against Pseudomonas aeruginosa MTCC 4727 assessed as diameter of growth inhibition zone at 500 ug/ml after 20 hrs by agar disc diffusion method; type: functional
Bacillus cereus [5] = test: Antibacterial activity against Bacillus cereus NCIM 2155 assessed as diameter of growth inhibition zone at 500 ug/ml after 20 hrs by agar disc diffusion method; type: functional
Staphylococcus aureus [6] = test: Antibacterial activity against Staphylococcus aureus MTCC 4102 assessed as diameter of growth inhibition zone at 1000 ug/ml after 20 hrs by agar disc diffusion method; type: functional
Saccharomyces cerevisiae [7] = test: Antifungal activity against Saccharomyces cerevisiae NCIM 3044 assessed as growth inhibition after 48 hrs by broth microdilution method; type: functional, organism-based; settings: NCIM 3044, 48 h
Bacillus cereus [8] = test: Antibacterial activity against Bacillus cereus NCIM 2155 assessed as diameter of growth inhibition zone at 1000 ug/ml after 20 hrs by agar disc diffusion method; type: functional
Escherichia coli [9] = test: Antibacterial activity against Escherichia coli NCIM 2931 assessed as diameter of growth inhibition zone at 500 ug/ml after 20 hrs by agar disc diffusion method; type: functional; settings: NCIM 2931, 20 h, read-out: DIZ
Candida albicans [10] = test: Antifungal activity against Candida albicans MTCC 183 assessed as diameter of growth inhibition zone at 1000 ug/ml after 4 days by agar disc diffusion method; type: functional
Escherichia coli [11] = test: Antibacterial activity against Escherichia coli NCIM 2931 assessed as growth inhibition after 24 hrs by broth microdilution method; type: functional, organism-based; settings: NCIM 2931, 24 h
Saccharomyces cerevisiae [12] = test: Antifungal activity against Saccharomyces cerevisiae NCIM 3044 assessed as diameter of growth inhibition zone at 500 ug/ml after 4 days by agar disc diffusion method; type: functional
Staphylococcus aureus [13] = test: Antibacterial activity against Staphylococcus aureus MTCC 4102 assessed as diameter of growth inhibition zone at 500 ug/ml after 20 hrs by agar disc diffusion method; type: functional
Saccharomyces cerevisiae [14] = test: Antifungal activity against Saccharomyces cerevisiae NCIM 3044 assessed as diameter of growth inhibition zone at 1000 ug/ml after 4 days by agar disc diffusion method; type: functional
Staphylococcus aureus [15] = test: Antibacterial activity against Staphylococcus aureus MTCC 4102 assessed as growth inhibition after 24 hrs by broth microdilution method; type: functional, organism-based; settings: MTCC 4102, 24 h

In the case of `N#CC1CCCN(c2ncc(-c3cccc(F)c3)c3[nH]c(-c4ccco4)nc23)C1` (stereo not given), the “diameter of the inhibition zone (DIZ)” value (Pseudomonas aeruginosa [1]) is reported as “inactive”, the “diameter of the inhibition zone (DIZ)” value (Candida albicans [2]) is reported as “inactive” and the zone of inhibition at 1000 µg/mL (Escherichia coli [3]) is reported as 16 mm. The “diameter of the inhibition zone (DIZ)” value (Pseudomonas aeruginosa [4]) was “inactive”, the “diameter of the inhibition zone (DIZ)” value (Bacillus cereus [5]) was “inactive” and the “diameter of the inhibition zone (DIZ)” value (Staphylococcus aureus [6]) was “inactive”. The IC50 (Saccharomyces cerevisiae [7]) was 98.8 µg/mL (≈ 255 µM), the MIC (Saccharomyces cerevisiae [7]) was 296 µg/mL (≈ 765 µM) and the “diameter of the inhibition zone (DIZ)” value (Bacillus cereus [8]) was “inactive”. For the same compound, the zone of inhibition at 500 µg/mL (Escherichia coli [9]) was 8 mm, the “diameter of the inhibition zone (DIZ)” value (Candida albicans [10]) was “inactive” and the IC50 (Escherichia coli [11]) was 74.5 µg/mL (≈ 192 µM). The MIC (Escherichia coli [11]) was 198 µg/mL (≈ 510 µM), the zone of inhibition at 500 µg/mL (Saccharomyces cerevisiae [12]; NCIM 3044, 96 h, read-out: DIZ) was 6.9 mm and the “diameter of the inhibition zone (DIZ)” value (Staphylococcus aureus [13]) was “inactive”. For the same compound, the zone of inhibition at 1000 µg/mL (Saccharomyces cerevisiae [14]; NCIM 3044, 96 h, read-out: DIZ) was 15 mm.
For `COc1cc(-c2cnc(N3CCC(C#N)CC3)c3nc(Cc4ccc(Cl)cc4Cl)[nH]c23)ccc1F`, the zone of inhibition at 1000 µg/mL (Pseudomonas aeruginosa [1]; MTCC 4727, 20 h, read-out: DIZ) was 8 mm, the “diameter of the inhibition zone (DIZ)” value (Candida albicans [2]) was “inactive” and the zone of inhibition at 1000 µg/mL (Escherichia coli [3]) was 9 mm. The zone of inhibition at 500 µg/mL (Pseudomonas aeruginosa [4]; MTCC 4727, 20 h, read-out: DIZ) was 3.5 mm, the “diameter of the inhibition zone (DIZ)” value (Bacillus cereus [5]) was “inactive” and the zone of inhibition at 1000 µg/mL (Staphylococcus aureus [6]; MTCC 4102, 20 h, read-out: DIZ) was 23 mm. The “diameter of the inhibition zone (DIZ)” value (Bacillus cereus [8]) was “inactive”, the zone of inhibition at 500 µg/mL (Escherichia coli [9]) was 4.1 mm and the “diameter of the inhibition zone (DIZ)” value (Candida albicans [10]) was “inactive”. The IC50 (Staphylococcus aureus [15]) was 100 µg/mL (≈ 196 µM), the MIC (Staphylococcus aureus [15]) was 200 µg/mL (≈ 392 µM) and the “diameter of the inhibition zone (DIZ)” value (Saccharomyces cerevisiae [12]) was “inactive”. For the same compound, the zone of inhibition at 500 µg/mL (Staphylococcus aureus [13]; MTCC 4102, 20 h, read-out: DIZ) was 10.5 mm and the “diameter of the inhibition zone (DIZ)” value (Saccharomyces cerevisiae [14]) was “inactive”.
